In one data set the test system is tumor growth. Further details: method as in PMID 24277854. As to conditions: recently published data; cited from earlier work.
In another data set the test system is phospho-AKT. Kind of data set: western blot for phospho-AKT in PD study tumors. The data set is classed as in vivo, NSG mice. As to conditions: TMD-231 xenograft tumors, 7 days of dosing. The method, then: (§1) To further assess preliminary efficacy and target modulation, a PD experiment was performed. […] Tumors were allowed to grow for 29 days to an average size of ~350 mm^3. […] After only 7 days of treatment, we observed a ~40% decrease in tumor volume with the combination, while tumors actually grew slightly in the face of single agent therapy, again, giving further observations of synergy (Fig. 4a). On the 7th day, the mice had plasma drawn, and then euthanized and the tumor removed. Measurement of buparlisib and WNT974 concentrations in tumor tissue confirmed that these agents were reaching the tumor (Fig. 4b). To assess molecular target modulation, RNA and protein was isolated from each of the tumors in our PD study and biomarker analysis was performed. […] (Supplementary Fig. 3a). […] Target modulation was assessed using qPCR for Axin2 (a marker of WNT974), and western blot for porcupine and phospho-Akt […] (a marker of buparlisib activity). qPCR was performed using Taqman assays (Life Technologies). Protein was isolated after 48 h of treatment in biological triplicates using radioimmunoprecipitation assay buffer and quantified with bicinchoninic acid assay (Thermo Fisher). Protein was run on bis-tris gels (Life Technologies) and transferred to polyvinylidene fluoride membrane. […] Quantification of blots was performed using ImageJ (NIH) and statistical analysis using GraphPad.
On the technique in general: In western blotting, separated proteins are transferred to a membrane and probed.

The subject of data set [1] is TNBC patient-derived xenograft (PDX). Kind of data set: TNBC PDX survival study. The data set is classed as in vivo, NSG mice. As to conditions: n = 10 per group, once-a-day for a maximum of 28 days, buparlisib 30 mg/kg, WNT974 3 mg/kg.
Data set [2] in a line: quantification of drug in resected tumors, HPLC-MS/MS. Format: in vivo, NSG mice. The note with it: NSG, mouse, tumor, 7 days once daily, average with standard deviation; for concentration at 1 h: 1 h post the last dose; for concentration at 7 h: 7 h post the last dose. How it is done:
After 7 days of treatment, we observe a ~40% decrease in tumor volume. b Quantification of drug in tumors resected from mice treated in our PD study. Half of the tumors were resected at 1 h post the last dose, and the other half 7 h post the last dose. Using Highperformance liquid chromatography-mass spectrometry (HPLC-MS/MS), buparlisib and WNT974 were quantified as nanograms of drug per gram of tumor tissue (ng/g). Average values with standard deviation are presented. LOQ limit of quantitation c As TMD-231 cells have a known propensity to metastasize to the lung, we assessed the effect of the combination therapy on the growth of lung metastases.

For a further data set, the system named is AXIN2 RNA. Kind of data set: qPCR for AXIN2 RNA in PD study tumors. The note with it: TMD-231 xenograft tumors, 7 days of dosing. Format: in vivo, NSG mice. How it is done: as §1
(Quantitative PCR measures a nucleic acid by following its amplification.)

A further data set concerns porcupine. The arrangement: method as in PMID 24277854. The note with it: recently published data; cited from earlier work.
The conditions of data set [3]: known; cited from earlier work.
The subject of another data set is TMD-231 lung metastases. Briefly: quantification of lung metastases, Ki67 staining. The data set is classed as in vivo, NSG mice. The note with it: TMD-231 xenograft, PD study lungs; combination p = 0.0196. The source says:
The TMD-231 cells used in our PD study have a known propensity to metastasize to the lung.[29] To assess the effect of the combination therapy on the growth of lung metastases, lung tissues from our PD study were stained and analyzed for metastatic burden. […] Lungs were extracted, fixed in 10% formalin, and processed in paraffin. Five-micrometer sections were H&E stained, deparaffinized, blocked, and stained using primary anti-human Ki67 antibody (DAKO, Carpinteria, California). The Aperio whole slide digital imaging system was used for imaging (Leica, Wetzlar, Germany). Using the Aperio ScanScope CS, ×20 images were taken at scan times ranging from 1.5 to 2.25 min. The total nuclear labeling index (Ki67) was generated using the Aperio ImageScope standard positive pixel algorithm. The Image Analysis software was used to calculate the percent of positive pixels (brown staining) in one large cross section from each lung.

For another data set, the system named is advanced TNBC. The arrangement: method as in ref 17 = [17]; 17. Nanda, R. A phase Ib study of pembrolizumab (MK-3475) in patients with advanced triple- negative breast cancer. SABCS Annual. Meeting. Oral. Presentation . (2014). The note with it: phase Ib trial; cited from earlier work.
In another data set the test system is metastatic TNBCs. The arrangement: method as in ref 16 = [16]; 16. Dirix, L. Avelumab (MSB0010718C), an anit-PD-L1 antibody, in patients with locally advanced or metastatic breast cancer: a phse Ib JAVELIN solid tumor trial. SABCS Annual. Meeting. Oral. Presentat. The note with it: patients with metastatic TNBCs, phase Ib JAVELIN trial; cited from earlier work.

The next data set has as its system porcupine (PORCN). Briefly: RNA-seq of MDA-MB-231 cells before and after buparlisib treatment. The data set is classed as cell-based, human. As to conditions: MDA-MB-231, RNA-seq before and after treatment.
The test system of data set [4] is phosphorylated-AKT (p-AKT Ser 473). Briefly: western blot for p-AKT in TNBC cell lines. As to conditions: MDA-MB-231, HCC70 and HCC1143; 48 h treatment. The data set is classed as cell-based, human. The method, then: (§2) To further confirm the induction of porcupine after buparlisib treatment, but at the protein level, we performed western blotting for porcupine and p-AKT before and after treatment with buparlisib.
(§3) Target modulation was assessed using qPCR for Axin2 (a marker of WNT974), and western blot for porcupine and phospho-Akt Ser 473 (a marker of buparlisib activity). qPCR was performed using Taqman assays (Life Technologies). Protein was isolated after 48 h of treatment in biological triplicates using radioimmunoprecipitation assay buffer and quantified with bicinchoninic acid assay (Thermo Fisher). Protein was run on bis-tris gels (Life Technologies) and transferred to polyvinylidene fluoride membrane. Primary pAKT-Ser 473 antibody (Cell Signaling Technology, Beverly, Massachusetts), β-actin (Cell Signaling Technology), and PORCN (Abcam, Cambridge, England) was incubated overnight with subsequent 1-hour incubation with horseradish peroxidase-conjugate secondary antibody. Staining was performed using a chemiluminescent substrate (ThermoFisher). Imaging was performed using an LAS-4000 Luminescent Image Analyzer (Fujifilm, Tokyo, Japan). Quantification of blots was performed using ImageJ (NIH) and statistical analysis using GraphPad.

In data set [5] the test system is porcupine (PORCN) protein. Briefly: western blot for porcupine in TNBC cell lines. Format: cell-based, human. The method, then: as §2, §3
Where [6] appears, read: 3 mg/kg, read-out: WNT974 in tumor tissue.
[7] abbreviates: 30 mg/kg, read-out: Buparlisib in tumor tissue.

Like-named read-outs stand apart in the source and are kept apart here.

With `Cc1cc(-c2ncc(CC(=O)Nc3ccc(-c4cnccn4)cn3)cc2C)ccn1` [WNT974], in the data set on tumor growth, the “inhibition of tumor growth in vivo” value is given as “significant inhibition”. The “inhibition of phospho-AKT in tumors” value in the data set with phospho-AKT is recorded as “not”. Further, the “mice survived to the end of the study” value in [1] was found to be 0%. For the same compound, in data set [2] (setting [6]), the concentration at 1 h turned out to be 19.2 ± 1.11 ng/g and the concentration at 7 h turned out to be 8.34 ± 0.33 ng/g. In addition, in the data set with AXIN2 RNA, the “AXIN2 RNA levels in tumors” value is given as “decreased”. Moreover, the “inhibition of its target (porcupine)” value in the data set on porcupine was “potent inhibition”. The “toxicity / most common side effect in humans” value in data set [3] is listed as “dysgeusia”. The “lung metastases compared with the control group” value in the data set on TMD-231 lung metastases is recorded as “small but non-significant decreases”.
Turning to “pembrolizumab: immune checkpoint therapy tested in a phase Ib trial in advanced TNBC”, the overall response rate in the data set with advanced TNBC is given as 18.5%.
In the case of avelumab: an anti-PD-L1 antibody, in the data set on metastatic TNBCs, the overall response rate is recorded as 8.6%.
For `Nc1cc(C(F)(F)F)c(-c2cc(N3CCOCC3)nc(N3CCOCC3)n2)cn1` [buparlisib], in the data set on porcupine (PORCN), the “PORCN over-expression after PI3K inhibition” value is ~ 8 fold. Moreover, in the data set on phospho-AKT, the “inhibition of phospho-AKT in tumors” value is recorded as “observed”. Further, the “mice survived to the end of the study” value in data set [1] came out at 40%. In data set [4], the phospho-AKT after treatment entry is listed as “potent inhibition”. Moreover, in data set [2] (setting [7]), the concentration at 1 h was 3590 ± 898 ng/g. The concentration at 7 h in data set [2] (setting [7]) was 2960 ± 683 ng/g. For the same compound, the “PORCN protein, quantified western blot” value in data set [5] (HCC70, 10 x IC50 buparlisib, p-value 0.0084) is recorded as “significant increase”; in data set [5] (HCC1143, IC50 buparlisib, p-value 0.013), “significant increases”; in [5] (MD-MB-231, IC50 buparlisib, p-value 0.0072) it was “significant increases”. Moreover, the “toxicity / most common side effect in humans” value in data set [3] was “depression, anxiety, pneumonitis, and liver toxicity”. In the data set with TMD-231 lung metastases, the “lung metastases compared with the control group” value was “small but non-significant decreases”.

These data come from PMC5460220, “Dual PI3K and Wnt pathway inhibition is a synergistic combination against triple negative breast cancer” (NPJ Breast Cancer, 2017).
